Assay results as given in ChEMBL document CHEMBL4507300 (2021).

Tests used:
[1] = system: Tyrosine-protein kinase ABL1 (Homo sapiens), P00519 [F317I]; settings: Compound concentration 1000.0 nM
[2] = system: Tyrosine-protein kinase ABL1 (Homo sapiens), P00519 [H396P]; settings: Compound concentration 1000.0 nM
[3] = system: Tyrosine-protein kinase ABL1 (Homo sapiens), P00519 [T315I]; settings: Compound concentration 1000.0 nM
[4] = biological target: Activin receptor type-2A (Homo sapiens) (UniProt P27037); settings: Compound concentration 1000.0 nM
[5] = biological target: Aurora kinase B (Homo sapiens) (UniProt Q96GD4); settings: Compound concentration 1000.0 nM
[6] = biological target: BMP-2-inducible protein kinase (Homo sapiens) (UniProt Q9NSY1); settings: Compound concentration 1000.0 nM
[7] = biological target: Bone morphogenetic protein receptor type-1A (Homo sapiens) (UniProt P36894); settings: Compound concentration 1000.0 nM
[8] = biological target: Serine/threonine-protein kinase B-raf (Homo sapiens) (UniProt P15056); settings: Compound concentration 1000.0 nM
[9] = biological target: Peripheral plasma membrane protein CASK (Homo sapiens) (UniProt O14936); settings: Compound concentration 1000.0 nM
[10] = biological target: Cyclin-dependent kinase-like 2 (Homo sapiens) (UniProt Q92772); settings: Compound concentration 1000.0 nM
[11] = biological target: Serine/threonine-protein kinase DCLK2 (Homo sapiens) (UniProt Q8N568); settings: Compound concentration 1000.0 nM
[12] = biological target: Serine/threonine-protein kinase MRCK gamma (Homo sapiens) (UniProt Q6DT37); settings: Compound concentration 1000.0 nM
Sequence of Serine/threonine-protein kinase MRCK gamma (Homo sapiens) (Q6DT37 whole entry): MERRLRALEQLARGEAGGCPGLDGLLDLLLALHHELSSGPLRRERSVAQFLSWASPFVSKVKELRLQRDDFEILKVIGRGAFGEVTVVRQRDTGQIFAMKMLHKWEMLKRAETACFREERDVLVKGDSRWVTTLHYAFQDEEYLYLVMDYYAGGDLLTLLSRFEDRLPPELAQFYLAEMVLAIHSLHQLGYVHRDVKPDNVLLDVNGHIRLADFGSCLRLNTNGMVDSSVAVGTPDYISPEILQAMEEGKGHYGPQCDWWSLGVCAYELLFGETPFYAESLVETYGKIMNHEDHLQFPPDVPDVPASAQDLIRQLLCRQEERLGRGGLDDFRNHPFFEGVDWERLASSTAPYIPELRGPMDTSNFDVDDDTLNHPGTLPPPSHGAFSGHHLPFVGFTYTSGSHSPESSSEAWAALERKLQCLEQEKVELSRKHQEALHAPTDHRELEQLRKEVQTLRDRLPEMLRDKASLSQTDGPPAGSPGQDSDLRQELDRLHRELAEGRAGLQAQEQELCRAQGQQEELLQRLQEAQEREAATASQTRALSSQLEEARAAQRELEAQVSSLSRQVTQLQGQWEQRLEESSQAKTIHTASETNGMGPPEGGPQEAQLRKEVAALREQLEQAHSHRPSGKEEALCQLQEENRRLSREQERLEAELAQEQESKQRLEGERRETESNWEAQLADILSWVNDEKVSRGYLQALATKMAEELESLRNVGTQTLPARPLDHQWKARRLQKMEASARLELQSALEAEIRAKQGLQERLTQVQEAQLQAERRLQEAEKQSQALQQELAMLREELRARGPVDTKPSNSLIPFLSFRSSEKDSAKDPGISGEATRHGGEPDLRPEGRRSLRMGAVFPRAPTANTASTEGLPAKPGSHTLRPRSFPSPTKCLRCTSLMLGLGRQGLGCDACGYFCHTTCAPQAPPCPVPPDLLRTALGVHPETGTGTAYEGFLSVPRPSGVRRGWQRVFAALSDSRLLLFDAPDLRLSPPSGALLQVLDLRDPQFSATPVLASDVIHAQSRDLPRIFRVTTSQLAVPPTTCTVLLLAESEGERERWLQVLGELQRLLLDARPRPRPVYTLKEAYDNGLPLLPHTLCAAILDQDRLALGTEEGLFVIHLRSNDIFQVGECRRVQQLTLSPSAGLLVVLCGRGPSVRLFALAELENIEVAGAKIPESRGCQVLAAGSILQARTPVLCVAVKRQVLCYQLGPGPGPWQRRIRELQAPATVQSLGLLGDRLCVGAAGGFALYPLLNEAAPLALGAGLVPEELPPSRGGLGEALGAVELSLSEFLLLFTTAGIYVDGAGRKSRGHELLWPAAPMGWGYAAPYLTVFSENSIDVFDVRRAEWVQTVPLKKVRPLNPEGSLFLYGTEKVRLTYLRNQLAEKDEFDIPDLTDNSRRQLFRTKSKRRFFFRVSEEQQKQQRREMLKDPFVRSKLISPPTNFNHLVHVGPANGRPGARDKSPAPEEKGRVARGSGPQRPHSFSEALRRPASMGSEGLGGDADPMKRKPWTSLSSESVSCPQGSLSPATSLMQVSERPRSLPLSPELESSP

[13] = biological target: Receptor-type tyrosine-protein kinase FLT3 (Homo sapiens) (UniProt P36888); settings: Compound concentration 1000.0 nM
[14] = biological target: Tyrosine-protein kinase FRK (Homo sapiens) (UniProt P42685); settings: Compound concentration 1000.0 nM
Sequence of Tyrosine-protein kinase FRK (Homo sapiens) (P42685 whole entry): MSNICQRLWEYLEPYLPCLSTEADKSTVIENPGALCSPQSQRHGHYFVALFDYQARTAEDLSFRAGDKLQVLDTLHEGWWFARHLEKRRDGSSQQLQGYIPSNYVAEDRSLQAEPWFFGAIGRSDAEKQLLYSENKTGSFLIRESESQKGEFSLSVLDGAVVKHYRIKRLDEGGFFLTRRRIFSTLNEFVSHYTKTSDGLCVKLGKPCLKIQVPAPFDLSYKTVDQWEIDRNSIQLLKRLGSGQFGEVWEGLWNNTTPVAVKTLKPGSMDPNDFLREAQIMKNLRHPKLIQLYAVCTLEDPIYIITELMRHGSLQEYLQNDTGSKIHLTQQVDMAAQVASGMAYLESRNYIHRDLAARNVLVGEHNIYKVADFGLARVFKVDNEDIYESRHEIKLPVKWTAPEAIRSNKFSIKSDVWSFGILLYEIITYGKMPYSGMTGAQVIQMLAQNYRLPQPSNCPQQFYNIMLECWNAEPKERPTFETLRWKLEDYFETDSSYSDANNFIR

[15] = system: eIF-2-alpha kinase GCN2 (Homo sapiens), Q9P2K8 [S808G]; settings: Compound concentration 1000.0 nM
[16] = biological target: Glycogen synthase kinase-3 beta (Homo sapiens) (UniProt P49841); settings: Compound concentration 1000.0 nM
[17] = biological target: Tyrosine-protein kinase ITK/TSK (Homo sapiens) (UniProt Q08881); settings: Compound concentration 1000.0 nM
[18] = system: Mast/stem cell growth factor receptor Kit (Homo sapiens), P10721 [D816H]; settings: Compound concentration 1000.0 nM
[19] = system: Mast/stem cell growth factor receptor Kit (Homo sapiens), P10721 [V559D]; settings: Compound concentration 1000.0 nM
[20] = biological target: Serine/threonine-protein kinase LATS1 (Homo sapiens) (UniProt O95835); settings: Compound concentration 1000.0 nM
[21] = biological target: Serine/threonine-protein kinase MAK (Homo sapiens) (UniProt P20794); settings: Compound concentration 1000.0 nM
[22] = biological target: Dual specificity mitogen-activated protein kinase kinase 4 (Homo sapiens) (UniProt P45985); settings: Compound concentration 1000.0 nM
[23] = biological target: Dual specificity mitogen-activated protein kinase kinase 5 (Homo sapiens) (UniProt Q13163); settings: Compound concentration 1000.0 nM
[24] = biological target: Mitogen-activated protein kinase kinase kinase 9 (Homo sapiens) (UniProt P80192); settings: Compound concentration 1000.0 nM
Sequence of Mitogen-activated protein kinase kinase kinase 9 (Homo sapiens) (P80192 whole entry, looked up): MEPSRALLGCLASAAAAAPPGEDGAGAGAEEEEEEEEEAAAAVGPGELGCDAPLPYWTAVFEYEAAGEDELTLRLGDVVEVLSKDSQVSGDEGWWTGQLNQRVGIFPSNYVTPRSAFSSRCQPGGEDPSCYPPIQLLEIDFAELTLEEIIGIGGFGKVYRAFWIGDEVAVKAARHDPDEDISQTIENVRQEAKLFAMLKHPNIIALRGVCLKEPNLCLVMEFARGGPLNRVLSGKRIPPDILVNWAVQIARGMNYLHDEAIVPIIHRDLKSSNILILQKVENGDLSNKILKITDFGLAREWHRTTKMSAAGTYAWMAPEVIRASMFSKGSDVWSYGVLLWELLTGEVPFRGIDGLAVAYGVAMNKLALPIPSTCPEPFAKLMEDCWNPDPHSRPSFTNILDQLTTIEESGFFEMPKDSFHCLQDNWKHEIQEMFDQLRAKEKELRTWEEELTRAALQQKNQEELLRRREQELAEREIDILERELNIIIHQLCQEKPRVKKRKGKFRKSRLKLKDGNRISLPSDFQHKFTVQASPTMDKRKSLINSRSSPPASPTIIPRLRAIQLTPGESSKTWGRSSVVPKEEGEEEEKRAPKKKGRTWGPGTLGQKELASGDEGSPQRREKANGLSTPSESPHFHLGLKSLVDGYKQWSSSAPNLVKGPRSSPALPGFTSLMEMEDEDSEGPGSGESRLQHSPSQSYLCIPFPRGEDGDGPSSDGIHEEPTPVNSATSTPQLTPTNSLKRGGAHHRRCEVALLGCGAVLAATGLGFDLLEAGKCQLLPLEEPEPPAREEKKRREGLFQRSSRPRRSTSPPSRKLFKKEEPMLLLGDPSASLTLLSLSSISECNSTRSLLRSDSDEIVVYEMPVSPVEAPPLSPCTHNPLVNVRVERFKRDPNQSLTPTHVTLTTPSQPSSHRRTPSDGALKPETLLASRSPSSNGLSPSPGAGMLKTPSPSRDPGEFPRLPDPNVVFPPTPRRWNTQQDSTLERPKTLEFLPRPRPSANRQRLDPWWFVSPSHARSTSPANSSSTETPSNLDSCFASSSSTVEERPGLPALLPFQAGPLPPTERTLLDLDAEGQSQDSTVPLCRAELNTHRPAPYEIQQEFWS

[25] = biological target: Serine/threonine-protein kinase 3 (Homo sapiens) (UniProt Q13188); settings: Compound concentration 1000.0 nM
[26] = biological target: Myosin light chain kinase, smooth muscle (Homo sapiens) (UniProt Q15746); settings: Compound concentration 1000.0 nM
[27] = biological target: Mitogen-activated protein kinase 13 (Homo sapiens) (UniProt O15264); settings: Compound concentration 1000.0 nM
[28] = biological target: Serine/threonine-protein kinase PAK 2 (Homo sapiens) (UniProt Q13177); settings: Compound concentration 1000.0 nM
Sequence of Serine/threonine-protein kinase PAK 2 (Homo sapiens) (Q13177 whole entry): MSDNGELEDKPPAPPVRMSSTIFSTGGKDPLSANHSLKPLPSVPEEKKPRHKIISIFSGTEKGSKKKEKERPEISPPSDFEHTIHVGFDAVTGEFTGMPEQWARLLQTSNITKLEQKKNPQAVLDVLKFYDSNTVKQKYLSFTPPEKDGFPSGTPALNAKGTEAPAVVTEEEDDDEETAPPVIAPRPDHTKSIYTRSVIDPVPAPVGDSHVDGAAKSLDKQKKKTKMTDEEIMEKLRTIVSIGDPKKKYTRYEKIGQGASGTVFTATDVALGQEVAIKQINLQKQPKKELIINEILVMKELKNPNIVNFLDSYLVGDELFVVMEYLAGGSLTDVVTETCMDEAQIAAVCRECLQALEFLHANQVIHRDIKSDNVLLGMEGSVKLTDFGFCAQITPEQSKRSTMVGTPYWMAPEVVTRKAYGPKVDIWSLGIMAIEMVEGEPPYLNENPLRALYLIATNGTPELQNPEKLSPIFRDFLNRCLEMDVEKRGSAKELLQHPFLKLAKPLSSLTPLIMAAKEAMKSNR

[29] = biological target: Calcium-dependent protein kinase 1 (Plasmodium falciparum) (UniProt P62344); settings: Compound concentration 1000.0 nM
[30] = biological target: Proto-oncogene tyrosine-protein kinase ROS (Homo sapiens) (UniProt P08922); settings: Compound concentration 1000.0 nM
[31] = biological target: Ribosomal protein S6 kinase alpha-5 (Homo sapiens) (UniProt O75582); settings: Compound concentration 1000.0 nM
[32] = biological target: Serine/threonine-protein kinase tousled-like 1 (Homo sapiens) (UniProt Q9UKI8); settings: Compound concentration 1000.0 nM
[33] = biological target: Activated CDC42 kinase 1 (Homo sapiens) (UniProt Q07912); settings: Compound concentration 1000.0 nM
[34] = biological target: BDNF/NT-3 growth factors receptor (Homo sapiens) (UniProt Q16620); settings: Compound concentration 1000.0 nM
[35] = biological target: Testis-specific serine/threonine-protein kinase 1 (Homo sapiens) (UniProt Q9BXA7); settings: Compound concentration 1000.0 nM
[36] = biological target: Testis-specific serine/threonine-protein kinase 3 (Homo sapiens) (UniProt Q96PN8); settings: Compound concentration 1000.0 nM
Sequence of Testis-specific serine/threonine-protein kinase 3 (Homo sapiens) (Q96PN8 whole entry): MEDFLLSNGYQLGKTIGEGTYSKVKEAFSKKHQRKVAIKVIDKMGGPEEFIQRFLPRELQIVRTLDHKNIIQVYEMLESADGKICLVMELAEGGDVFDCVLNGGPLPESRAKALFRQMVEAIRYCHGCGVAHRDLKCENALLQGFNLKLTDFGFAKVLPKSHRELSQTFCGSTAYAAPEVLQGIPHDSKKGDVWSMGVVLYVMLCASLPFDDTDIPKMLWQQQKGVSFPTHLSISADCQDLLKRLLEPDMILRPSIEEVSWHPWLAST

[37] = biological target: Serine/threonine-protein kinase VRK2 (Homo sapiens) (UniProt Q86Y07); settings: Compound concentration 1000.0 nM
Sequence of Serine/threonine-protein kinase VRK2 (Homo sapiens) (Q86Y07 whole entry): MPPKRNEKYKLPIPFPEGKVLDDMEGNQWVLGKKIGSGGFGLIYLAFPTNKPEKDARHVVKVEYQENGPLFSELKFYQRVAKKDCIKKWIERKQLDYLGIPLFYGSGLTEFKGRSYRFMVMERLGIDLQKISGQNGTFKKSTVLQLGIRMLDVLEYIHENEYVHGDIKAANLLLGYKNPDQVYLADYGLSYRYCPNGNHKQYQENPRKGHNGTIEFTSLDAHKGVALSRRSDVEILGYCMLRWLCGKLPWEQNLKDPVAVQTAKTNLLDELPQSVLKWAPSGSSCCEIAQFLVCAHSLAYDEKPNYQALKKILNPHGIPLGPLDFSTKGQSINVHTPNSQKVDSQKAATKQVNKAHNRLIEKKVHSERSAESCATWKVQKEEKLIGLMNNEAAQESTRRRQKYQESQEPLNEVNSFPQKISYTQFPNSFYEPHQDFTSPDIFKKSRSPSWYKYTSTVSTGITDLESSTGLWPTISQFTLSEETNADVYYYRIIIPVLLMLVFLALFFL

[38] = biological target: Serine/threonine-protein kinase WNK3 (Homo sapiens) (UniProt Q9BYP7); settings: Compound concentration 1000.0 nM
[39] = biological target: Serine/threonine-protein kinase 32C (Homo sapiens) (UniProt Q86UX6); settings: Compound concentration 1000.0 nM
Sequence of Serine/threonine-protein kinase 32C (Homo sapiens) (Q86UX6 whole entry): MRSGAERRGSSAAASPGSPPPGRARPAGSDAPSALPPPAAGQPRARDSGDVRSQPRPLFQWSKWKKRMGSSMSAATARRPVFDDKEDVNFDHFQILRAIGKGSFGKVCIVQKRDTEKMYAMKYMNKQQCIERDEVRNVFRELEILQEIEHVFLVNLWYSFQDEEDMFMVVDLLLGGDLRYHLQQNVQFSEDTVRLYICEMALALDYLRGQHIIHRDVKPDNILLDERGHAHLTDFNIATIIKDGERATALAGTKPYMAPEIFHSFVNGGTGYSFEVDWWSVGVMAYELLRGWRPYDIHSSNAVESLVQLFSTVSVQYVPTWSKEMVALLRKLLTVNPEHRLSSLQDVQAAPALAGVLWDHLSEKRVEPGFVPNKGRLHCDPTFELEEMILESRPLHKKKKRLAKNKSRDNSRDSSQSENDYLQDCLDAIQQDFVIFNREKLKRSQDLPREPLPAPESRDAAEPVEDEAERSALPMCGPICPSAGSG

[40] = biological target: 5-hydroxytryptamine receptor 1E (Homo sapiens) (UniProt P28566); settings: Compound concentration 10.0 uM
[41] = biological target: D(1B) dopamine receptor (Homo sapiens) (UniProt P21918); settings: Compound concentration 10.0 uM
[42] = biological target: Sodium-dependent dopamine transporter (Homo sapiens) (UniProt Q01959); settings: Compound concentration 10.0 uM
[43] = biological target: Kappa-type opioid receptor (Homo sapiens) (UniProt P41145); settings: Compound concentration 10.0 uM
Histamine H1 receptor = Histamine H1 receptor (Homo sapiens, UniProt P35367); settings: Compound concentration 10.0 uM
[44] = biological target: Beta-2 adrenergic receptor (Homo sapiens) (UniProt P07550); settings: Compound concentration 10.0 uM

## COc1cccc(CNC(=O)c2nc3scc(COCc4ccc(C(=O)O)cc4)c3c(=O)[nH]2)c1 [T-26c]
[1]
  residual activity: 62.4%
[2]
  residual activity: 83.6%
[3]
  residual activity: 92%
[4]
  residual activity: 92.9%
[5]
  residual activity: 71.3%
[6]
  residual activity: 92.3%
[7]
  residual activity: 100%
[8]
  residual activity: 72.8%
[9]
  residual activity: 67.3%
[10]
  residual activity: 66.8%
[11]
  residual activity: 100%
[12]
  residual activity: 99.4%
[13]
  residual activity: 85%
[14]
  residual activity: 83.7%
[15]
  residual activity: 100%
[16]
  residual activity: 62.6%
[17]
  residual activity: 86.8%
[18]
  residual activity: 59%
[19]
  residual activity: 99.1%
[20]
  residual activity: 100%
[21]
  residual activity: 100%
[22]
  residual activity: 59.7%
[23]
  residual activity: 100%
[24]
  residual activity: 100%
[25]
  residual activity: 100%
[26]
  residual activity: 100%
[27]
  residual activity: 100%
[28]
  residual activity: 100%
[29]
  residual activity: 72.7%
[30]
  residual activity: 100%
[31]
  residual activity: 98%
[32]
  residual activity: 100%
[33]
  residual activity: 89.6%
[34]
  residual activity: 67.1%
[35]
  residual activity: 88.2%
[36]
  residual activity: 81.4%
[37]
  residual activity: 74.2%
[38]
  residual activity: 83.6%
[39]
  residual activity: 89.6%
[40]
  inhibition: -0.179%
[41]
  inhibition: 11.9%
[42]
  inhibition: 9.28%
[43]
  inhibition: 8.18%
Histamine H1 receptor
  inhibition: 50.2%
[44]
  inhibition: 25.4%
